Reference: paper PMC7383964 (Chemmedchem, 2020)

Assays:
[1] = rat, microsomes
[2] = in vitro; settings: male, Sprague-Dawley, rat, microsomes, pH 7.4
[3] = tested on: HEK293T cells; settings: human

Structure (SMILES) | Intrinsic clearance [1] [µL/min/mg] | half-life [2] [h] | Cell density relative to the effect of vehicle (DMSO) [3] [%]
O=C(/N=N/c1ccc(F)cc1)N1CCCCC1 [Compound 18, (E)‐((4‐Fluorophenyl)diazenyl)(piperidin‐1‐yl)methanone] | 97 ± 15 | 1.22 ± 0.2 | 
O=C(/C=C/c1ccc(F)cc1)N1CCCCC1 [Compound 19, (E)‐3‐(4‐Fluorophenyl)‐1‐(piperidin‐1‐yl)prop‐2‐en‐1‐one] | 85 ± 20 | 1.42 ± 0.3 | 
C=CCN1CC[C@]23c4c5ccc(O)c4O[C@H]2C(=O)CC[C@@]3(O)[C@H]1C5 [naloxone] |  |  | 84±5
